Converted amounts (≈) assume the structure as drawn. Where two headings read alike, the source gives them in different places.
Key:
[1] = system: Escherichia coli MC4100 harboring the IMP4213 (E. coli IMP); assay: microbe, parasite or virus in culture; format: cell-based; settings: Escherichia coli, 22 h, read-out: MIC (μg/mL) E. coli IMP, E. coli MC4100 IMP4213, increased outer-membrane permeability; 35° C., 22 hours
Procedure, shortened: (§1)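 Ten-point 2-fold series began at 4 μg/mL in protocol 2 and 0.5 μg/mL in protocol 3, in cation-adjusted MHB plus 0.002% Tween-80. Bacteria added to OD600 0.0005 final and incubated at 35° C for 22 hours per CLSI microdilution.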

[2] = molecular target: T1, SpsB (Staphylococcus aureus signal peptidase) (Staphylococcus aureus, UniProt P0A070); assay: cell-based; format: biochemical; settings: SpsB IC50, whole-cell S. aureus (USA300 background, overexpressing SpsB) as SpsB source; fluorogenic peptide substrate, kinetic read 30 min
T1 construct: This assay uses a suspension of Staphylococcus aureus cells as a source of SpsB instead of recombinant SpsB protein; endogenous in cells; host or cells: S. aureus, USA300 background, overexpressing SpsB (whole-cell suspension from frozen pellets)
Procedure, shortened: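 Cleavage of an internally quenched (Dabcyl)βAla-KPAKAAE(Edans) peptide, added as 20 μM solution mixed 1:1 with cells, was followed for 30 min at 340/490 nm. SpsB came from a suspension of SpsB-overexpressing USA300 S. aureus in Tween-80-containing PBS buffer. Slopes plotted against 3-fold compound dilutions gave IC50.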

[3] = system: Methicillin Resistant Staphylococcus aureus strain USA 300, NRS384; assay: Minimum inhibitory concentration, broth micro-dilution (CLSI), S. aureus; format: cell-based; settings: Staphylococcus aureus, MRSA / NRS 384 / USA300, 22 h, 35° C., 22 hours
Procedure, shortened: as §1

[4] = system: Escherichia coli ATCC 25922; assay: Minimum inhibitory concentration, broth micro-dilution (CLSI), E. coli; format: cell-based; settings: Escherichia coli, ATCC25922, 22 h, 35° C., 22 hours
[5] = MRSA USA 300 NRS384, read-out: MIC (μg/mL) S. aureus
[6] = E. coli ATCC 25922, read-out: MIC (μg/mL) E. coli
[7] = read-out: MIC (μg/mL) S. aureus, MRSA USA 300 NRS384
[8] = read-out: MIC (μg/mL) E. coli, E. coli ATCC 25922

T1 sequence (P0A070 whole entry): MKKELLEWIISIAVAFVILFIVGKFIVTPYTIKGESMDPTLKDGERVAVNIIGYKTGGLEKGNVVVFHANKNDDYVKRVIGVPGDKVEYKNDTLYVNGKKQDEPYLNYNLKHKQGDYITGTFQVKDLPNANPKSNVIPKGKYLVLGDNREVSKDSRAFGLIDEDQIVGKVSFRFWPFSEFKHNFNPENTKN

Row | Structure (SMILES) | MIC [1] [µg/mL] | IC50 [2] [nM] | MIC [3, 5] [µg/mL] | MIC [4, 6] [µg/mL] | MIC [3, 7] [µg/mL] | MIC [4, 8] [µg/mL]
1 | Cc1cc(C2CCC2)ccc1C(=O)N[C@@H](CCN)C(=O)N(C)[C@@H]1C(=O)N[C@@H](C)C(=O)N[C@H](C(=O)NCC#N)Cc2ccc(OCCN)c(c2)-c2cc1ccc2OCCN [Compound 214] | 0.031 (≈ 0.0383 µM) | 0.98 | 0.25 (≈ 0.309 µM) | 3 (≈ 3.7 µM) | – | –
2 | Cc1cc(C2CCCC2)ccc1C(=O)N[C@@H](CCN)C(=O)N(C)[C@@H]1C(=O)N[C@@H](C)C(=O)N[C@H](C(=O)NCC#N)Cc2ccc(OCCN)c(c2)-c2cc1ccc2OCCN [Compound 215] | 0.039 (≈ 0.0473 µM) | 0.97 | 0.19 (≈ 0.231 µM) | 1.8 (≈ 2.18 µM) | – | –
3 | Cc1cc(C2CC2)ccc1C(=O)N[C@@H](CCN)C(=O)N(C)[C@@H]1C(=O)N[C@@H](C)C(=O)N[C@H](C(=O)NCC#N)Cc2ccc(OCCN)c(c2)-c2cc1ccc2OCCN [Compound 216] | 0.25 (≈ 0.314 µM) | 3.3 | 1 (≈ 1.26 µM) | 8 (≈ 10.1 µM) | – | –
4 | Cc1cc(CCC(C)C)ccc1C(=O)N[C@@H](CCN)C(=O)N(C)[C@@H]1C(=O)N[C@@H](C)C(=O)N[C@H](C(=O)NCC#N)Cc2ccc(OCCN)c(c2)-c2cc1ccc2OCCN [Compound 217] | 0.016 (≈ 0.0194 µM) | 0.88 | 0.094 (≈ 0.114 µM) | 0.5 (≈ 0.605 µM) | – | –
5 | Cc1cc(CC(C)C)ccc1C(=O)N[C@@H](CCN)C(=O)N(C)[C@@H]1C(=O)N[C@@H](C)C(=O)N[C@H](C(=O)NCC#N)Cc2ccc(OCCN)c(c2)-c2cc1ccc2OCCN [Compound 218] | 0.031 (≈ 0.0382 µM) | 0.88 | 0.25 (≈ 0.308 µM) | 2 (≈ 2.46 µM) | – | –
6 | Cc1cc(CC(C)(C)C)ccc1C(=O)N[C@@H](CCN)C(=O)N(C)[C@@H]1C(=O)N[C@@H](C)C(=O)N[C@H](C(=O)NCC#N)Cc2ccc(OCCN)c(c2)-c2cc1ccc2OCCN [Compound 219] | 0.023 (≈ 0.0278 µM) | 1.9 | 0.19 (≈ 0.23 µM) | 1.5 (≈ 1.82 µM) | – | –
7 | C[C@@H]1NC(=O)[C@@H](N(C)C(=O)[C@H](CCN)NC(=O)c2ccc(C(C)(C)C)cc2C(F)F)c2ccc(OCCN)c(c2)-c2cc(ccc2OCCN)C[C@@H](C(=O)NCC#N)NC1=O [Compound 220] | 0.047 (≈ 0.0554 µM) | 1.5 | – | – | 0.25 (≈ 0.295 µM) | 2.5 (≈ 2.95 µM)
8 | CCCCCCCCc1ccc(C(=O)N[C@@H](CCN)C(=O)N(C)[C@@H]2C(=O)N[C@@H](C)C(=O)N[C@H](C(=O)NCC#N)Cc3ccc(OCCN)c(c3)-c3cc2ccc3OCCN)c(C(F)F)c1 [Compound 221] | 0.023 (≈ 0.0254 µM) | 1.3 | 0.063 (≈ 0.0697 µM) | 0.19 (≈ 0.21 µM) | – | –
9 | CCCCCCCCc1ccc(C(=O)N[C@@H](CCN)C(=O)N(C)[C@@H]2C(=O)N[C@@H](C)C(=O)N[C@H](C(=O)NCC#N)Cc3ccc(OCCN)c(c3)-c3cc2ccc3OCCN)c(N)c1 [Compound 223] | 0.016 (≈ 0.0184 µM) | 1.5 | 0.031 (≈ 0.0357 µM) | 0.25 (≈ 0.288 µM) | – | –
10 | CCCCCCCc1cc(Cl)c(C(=O)N[C@@H](CCN)C(=O)N(C)[C@@H]2C(=O)N[C@@H](C)C(=O)N[C@H](C(=O)NCC#N)Cc3ccc(OCCN)c(c3)-c3cc2ccc3OCCN)c(Cl)c1 [Compound 226] | 0.012 (≈ 0.0132 µM) | 0.88 | 0.094 (≈ 0.103 µM) | 0.38 (≈ 0.418 µM) | – | –
11 | CCCCc1ccc(C(=O)N[C@@H](CCN)C(=O)N(C)[C@@H]2C(=O)N[C@@H](C)C(=O)N[C@H](C(=O)NCC#N)Cc3ccc(OCCN)c(c3)-c3cc2ccc3OCCN)cn1 [Compound 227] | 0.38 (≈ 0.476 µM) | 5.5 | 1.5 (≈ 1.88 µM) | 16 (≈ 20 µM) | – | –
12 | CCCCCc1ccc(C(=O)N[C@@H](CCN)C(=O)N(C)[C@@H]2C(=O)N[C@@H](C)C(=O)N[C@H](C(=O)NCC#N)Cc3ccc(OCCN)c(c3)-c3cc2ccc3OCCN)c(C2CC2)c1 [Compound 229] | 0.016 (≈ 0.0188 µM) | 0.92 | 0.047 (≈ 0.0552 µM) | 1.5 (≈ 1.76 µM) | – | –
13 | CCCCc1cc(C)c(C(=O)N[C@@H](CCCN)C(=O)N(C)[C@@H]2C(=O)N[C@@H](C)C(=O)N[C@H](C(=O)NCC#N)Cc3ccc(OCCN)c(c3)-c3cc2ccc3OCCN)c(C)c1 [Compound 230] | 0.031 (≈ 0.0369 µM) | 1.3 | 0.38 (≈ 0.452 µM) | 4 (≈ 4.76 µM) | – | –
14 | CCCCCCCCCCCC(=O)N[C@@H](CO)C(=O)N(C)[C@@H]1C(=O)N[C@@H](C)C(=O)N[C@H](C(=O)NCC#N)Cc2ccc(OCCN)c(c2)-c2cc1ccc2OCCN [Compound 231] | 0.063 (≈ 0.0781 µM) | 0.57 | 0.13 (≈ 0.161 µM) | 8 (≈ 9.91 µM) | – | –
15 | CCCCCCCCCC(=O)N[C@@H](CO)C(=O)N(C)[C@@H]1C(=O)N[C@@H](C)C(=O)N[C@H](C(=O)NCC#N)Cc2ccc(OCCN)c(c2)-c2cc1ccc2OCCN [Compound 232] | 0.25 (≈ 0.321 µM) | 2.4 | 1.5 (≈ 1.93 µM) | > 64 | – | –
16 | C[C@@H]1NC(=O)[C@@H](N(C)C(=O)[C@H](CO)NC(=O)c2ccc(-c3ccc(Cl)cc3)cc2)c2ccc(OCCN)c(c2)-c2cc(ccc2OCCN)C[C@@H](C(=O)NCC#N)NC1=O [Compound 233] | 0.13 (≈ 0.155 µM) | 4 | – | – | 0.5 (≈ 0.596 µM) | 32 (≈ 38.1 µM)
17 | C[C@@H]1NC(=O)[C@@H](N(C)C(=O)[C@H](CO)NC(=O)c2cnc(-c3ccc(Cl)cc3)nc2)c2ccc(OCCN)c(c2)-c2cc(ccc2OCCN)C[C@@H](C(=O)NCC#N)NC1=O [Compound 234] | 0.25 (≈ 0.297 µM) | 3.9 | – | – | 1 (≈ 1.19 µM) | 32 (≈ 38 µM)
18 | CCCCCCCCc1ccc(C(=O)N[C@@H](CO)C(=O)N(C)[C@@H]2C(=O)N[C@@H](C)C(=O)N[C@H](C(=O)NCC#N)Cc3ccc(OCCN)c(c3)-c3cc2ccc3OCCN)c(C)c1 [Compound 235] | 0.012 (≈ 0.014 µM) | 0.98 | 0.094 (≈ 0.11 µM) | 1 (≈ 1.17 µM) | – | –
19 | CCCCCCCCCC(=O)N[C@@H](CC(N)=O)C(=O)N(C)[C@@H]1C(=O)N[C@@H](C)C(=O)N[C@H](C(=O)NCC#N)Cc2ccc(OCCN)c(c2)-c2cc1ccc2OCCN [Compound 236] | 1.5 (≈ 1.86 µM) | 1.5 | 1 (≈ 1.24 µM) | > 64 | – | –
20 | CCCCCCc1ccc(C(=O)N[C@@H](CC(N)=O)C(=O)N(C)[C@@H]2C(=O)N[C@@H](C)C(=O)N[C@H](C(=O)NCC#N)Cc3ccc(OCCN)c(c3)-c3cc2ccc3OCCN)c(C)c1 [Compound 237] | 0.094 (≈ 0.11 µM) | 1.1 | 0.13 (≈ 0.152 µM) | 16 (≈ 18.7 µM) | – | –
21 | CCCCCCCCc1ccc(C(=O)N[C@@H](CC(N)=O)C(=O)N(C)[C@@H]2C(=O)N[C@@H](C)C(=O)N[C@H](C(=O)NCC#N)Cc3ccc(OCCN)c(c3)-c3cc2ccc3OCCN)c(C)c1 [Compound 239] | 0.094 (≈ 0.107 µM) | 0.74 | 0.047 (≈ 0.0533 µM) | 3 (≈ 3.4 µM) | – | –
22 | CCCCCCCCCCCC(=O)N[C@@H](C)C(=O)N(C)[C@@H]1C(=O)N[C@@H](C)C(=O)N[C@H](C(=O)NCC#N)Cc2ccc(OCCN)c(c2)-c2cc1ccc2OCCN [Compound 241] | 0.063 (≈ 0.0796 µM) | 1.4 | 0.13 (≈ 0.164 µM) | 6 (≈ 7.59 µM) | – | –
23 | CCCCCCCCc1ccc(C(=O)N[C@@H](C)C(=O)N(C)[C@@H]2C(=O)N[C@@H](C)C(=O)N[C@H](C(=O)NCC#N)Cc3ccc(OCCN)c(c3)-c3cc2ccc3OCCN)c(C)c1 [Compound 243] | 0.031 (≈ 0.0369 µM) | 1.3 | 0.094 (≈ 0.112 µM) | 1.5 (≈ 1.79 µM) | – | –
24 | CCCCCCCCCCCC(=O)N[C@@H](CCC(N)=O)C(=O)N(C)[C@@H]1C(=O)N[C@@H](C)C(=O)N[C@H](C(=O)NCC#N)Cc2ccc(OCCN)c(c2)-c2cc1ccc2OCCN [Compound 244] | 0.19 (≈ 0.224 µM) | 1 | 0.13 (≈ 0.153 µM) | 48 (≈ 56.6 µM) | – | –

From patent publication US20180327367A1, “MACROCYCLIC BROAD SPECTRUM ANTIBIOTICS” (priority 2015, published 2018)
